Source: patent US5604253A, “N-benzylindol-3-yl propanoic acid derivatives as cyclooxygenase inhibitors” (priority 1995, dated 1997)
Read-outs that look alike come from different tables or passages of the source.

Legend:
[1] = test system: Rat Paw Edema; assay: Rat paw edema assay (carrageenan); type: in vivo, Sprague-Dawley rat
Method: Male Sprague-Dawley rats (150-200 g) are fasted overnight and are given po either vehicle (1% methocel or 5% Tween 80) or a test compound. One hr later, a line is drawn using a permanent marker at the level above the ankle in one hind paw to define the area of the paw to be monitored. The paw volume (V0) is measured using a plethysmometer (Ugo-Basile, Italy) based on the principle of water displacement. The animals are then injected subplantarly with 50 μl of 1% carrageenan solution in saline (FMC Corp, Maine) into the paw using an insulin syringe with a 25-gauge needle (i.e., 500 μg carrageenan per paw). Three hr later, the paw volume (V3) is measured and the increases in paw volume (V3 -V0) are calculated. The animals are sacrificed by CO2 asphyxiation and the absence or presence of stomach lesions scored. Data is compared with the vehicle-control values and percent inhibition calculated. All treatment groups are coded to eliminate observer bias.

[2] = molecular target: cyclooxygenase-1 (Homo sapiens, UniProt P23219); assay: cell-based; details: PGE2 production, human U-937 cells, 10 μM arachidonic acid; read-out: Cox-1 IC50
Method: (§1) Compounds were tested as inhibitors of cyclooxygenase activity in whole cell cyclooxygenase assays. Both of these assays measured prostaglandin E2 synthesis in response to arachidonic acid, using a radioimmunoassay. Cells used for these assays were human osteosarcoma 143 cells (which specifically express cyclooxygenase-2) and human U-937 cells (which specifically express cyclooxygenase-1). In these assays, 100% activity is defined as the difference between prostaglandin E2 synthesis in the absence and presence of arachidonate addition.
(§2) For cyclooxygenase assays, osteosarcoma cells are cultured in 1 mL of media in 24-well multidishes (Nunclon) until confluent (1-2×10^5 cells/well). U-937 cells are grown in spinner flasks and resuspended to a final density of 1.5×10^6 cells/mL in 24-well multidishes (Nunclon). Following washing and resuspension of osteosarcoma and U-937 cells in 1 mL of Hanks balanced salts solution (HBSS), 2 μL of a DMSO solution of test compound or DMSO vehicle is added, and samples gently mixed. All assays are performed in triplicate. Samples are then incubated for 5 or 15 minutes at 37° C., prior to the addition of arachidonic acid. Arachidonic acid (peroxide-free, Cayman Chemical) is prepared as a 10 mM stock solution in ethanol and further diluted 10-fold in HBSS. An aliquot of 10 μL of this diluted solution is added to the cells to give a final arachidonic acid concentration of 10 μM. Control samples are incubated with ethanol vehicle instead of arachidonic acid. Samples are again gently mixed and incubated for a further 10 min at 37° C. For osteosarcoma cells, reactions are then stopped by the addition of 100 μL of 1N HCl, with mixing and by the rapid removal of the solution from cell monolayers. For U-937 cells, reactions are stopped by the addition of 100 μL of 1N HCl, with mixing. Samples are then neutralized by the addition of 100 μL of 1N NaOH and PGE2 levels measured by radioimmunoassay.
(§3) In the assay, inhibition is determined by measuring the amount of prostaglandin E2 (PGE2) synthesized in the presence of arachidonic acid, cyclooxygenase-1 or cyclooxygenase-2 and a putative inhibitor.

[3] = molecular target: T1, cyclooxygenase-2 (Homo sapiens, UniProt P35354); assay: cell-based; details: PGE2 production, human osteosarcoma 143 cells, 10 μM arachidonic acid; read-out: Cox-2 IC50
T1 sequence (P35354 18-604): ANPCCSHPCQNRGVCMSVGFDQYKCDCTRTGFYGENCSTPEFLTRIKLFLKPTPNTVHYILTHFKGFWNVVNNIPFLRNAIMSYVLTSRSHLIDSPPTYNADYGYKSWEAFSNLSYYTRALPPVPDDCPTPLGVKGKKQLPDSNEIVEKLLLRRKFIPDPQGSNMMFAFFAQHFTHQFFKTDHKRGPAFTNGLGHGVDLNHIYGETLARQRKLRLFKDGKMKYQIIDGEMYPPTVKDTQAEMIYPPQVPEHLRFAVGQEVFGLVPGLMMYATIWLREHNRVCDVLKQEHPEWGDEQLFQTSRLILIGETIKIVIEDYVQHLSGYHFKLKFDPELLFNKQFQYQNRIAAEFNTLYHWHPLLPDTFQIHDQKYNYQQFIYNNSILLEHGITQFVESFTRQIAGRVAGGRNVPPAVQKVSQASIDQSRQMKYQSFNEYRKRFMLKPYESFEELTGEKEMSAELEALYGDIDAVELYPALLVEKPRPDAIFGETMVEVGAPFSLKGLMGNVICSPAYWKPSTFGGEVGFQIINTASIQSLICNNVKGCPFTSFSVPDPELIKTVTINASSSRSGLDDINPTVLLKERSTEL
Method: as §1, §2, §3

[4] = edema inhibition, rat, po 1 hr before carrageenan, paw volume at 3 hr, read-out: ED30

Chain of cyclooxygenase-1 (P23219 24-599): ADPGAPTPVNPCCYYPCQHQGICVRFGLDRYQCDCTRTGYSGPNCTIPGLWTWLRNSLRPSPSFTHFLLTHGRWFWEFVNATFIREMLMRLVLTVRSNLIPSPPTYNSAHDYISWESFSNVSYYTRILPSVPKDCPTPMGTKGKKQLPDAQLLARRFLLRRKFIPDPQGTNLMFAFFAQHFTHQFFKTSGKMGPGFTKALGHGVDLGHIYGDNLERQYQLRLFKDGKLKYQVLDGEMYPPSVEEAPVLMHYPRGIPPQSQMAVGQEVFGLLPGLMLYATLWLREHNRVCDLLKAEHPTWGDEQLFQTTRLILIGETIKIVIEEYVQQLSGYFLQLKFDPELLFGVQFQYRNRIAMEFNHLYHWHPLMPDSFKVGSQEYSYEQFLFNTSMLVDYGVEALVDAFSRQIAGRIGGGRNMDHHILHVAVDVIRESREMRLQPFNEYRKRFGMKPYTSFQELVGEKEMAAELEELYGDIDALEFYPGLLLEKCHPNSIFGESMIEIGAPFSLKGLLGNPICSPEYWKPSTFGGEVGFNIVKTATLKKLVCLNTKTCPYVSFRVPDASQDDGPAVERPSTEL

SMILES	ED30 ([1]; Rattus norvegicus, po, 3 h)	IC50 [2]	IC50 [3]	ED30 [1, 4]
COc1ccc2c(c1)c([C@@H]1C[C@H]1C(=O)[O-])c(C)n2Cc1ccc(Br)cc1.[Na+] (relative stereo)	0.6 mg/kg	–	–	–
COc1ccc2c(c1)c([C@@H]1C[C@H]1C(=O)[O-])c(C)n2Cc1ccc(Br)cc1.[Na+] (relative stereo) [sodium salt]	–	> 10000 nM	46 nM	–
COc1ccc2c(c1)c(C(C)C(=O)O)c(C)n2Cc1ccc(Cl)cc1 (stereo not drawn) [MK-555, α-(1-p-chlorobenzyl-2-methyl-5-methoxy-3-indolyl)propionic acid, reference compound]	–	–	–	3 mg/kg
COc1ccc2c(c1)c(C(C)CC(=O)[O-])c(C)n2Cc1ccc(Br)cc1.[Na+] (racemic) [sodium salt]	–	> 10000 nM	4 nM	–
COc1ccc2c(c1)c(C(C)CC(=O)[O-])c(C)n2Cc1ccc(Br)cc1.[Na+] (racemic)	0.7 mg/kg	–	–	–
COc1ccc2c(c1)c(CC(=O)O)c(C)n2C(=O)c1ccc(Cl)cc1 [Indomethacin, reference compound]	–	–	–	0.9 mg/kg
